Values of other authors in patent US20050032867A1, “Pharmaceutical composition comprising a 5ht1 receptor agonist” (priority 2001, published 2005).

- effect of food on the overall bioavailability (administered orally): no significant effect
- delay of Tmax (time to maximum observed serum concentrations) by food (administered orally with food): about 0.5 hour
Compound: CNS(=O)(=O)Cc1ccc2[nH]cc(CCN(C)C)c2c1 [sumatriptan]
